SMILES strings stand for the structures.

Broadly, the IC50 is the midpoint of a concentration-inhibition curve.

The experiment has as its target T1, Murine PKD1 kinase domain (Mus musculus, UniProt Q62101).
T1 construct: hexahistidine (pFastBac HTb leader) (N); made in house; host or cells: Sf9 insect cells, baculovirus (Bac-to-Bac HT, pFastBac HTb)
T1 sequence (Q62101 with tags, fused parts or gaps R683W): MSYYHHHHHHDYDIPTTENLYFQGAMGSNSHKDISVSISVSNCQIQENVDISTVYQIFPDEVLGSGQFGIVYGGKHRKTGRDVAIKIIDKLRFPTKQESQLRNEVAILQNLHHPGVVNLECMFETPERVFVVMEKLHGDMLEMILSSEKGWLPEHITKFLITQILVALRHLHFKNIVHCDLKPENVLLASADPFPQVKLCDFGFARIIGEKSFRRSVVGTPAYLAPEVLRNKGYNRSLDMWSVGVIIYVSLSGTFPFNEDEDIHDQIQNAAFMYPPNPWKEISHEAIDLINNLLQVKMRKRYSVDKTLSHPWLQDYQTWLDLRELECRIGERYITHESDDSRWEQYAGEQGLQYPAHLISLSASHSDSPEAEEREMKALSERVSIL
Description: PKD1 (Murine Kinase Domain) Enzyme Activity Assay (IMAP fluorescence polarisation). Type of experiment: biochemical. Conditions: 10 μM ATP, 60 minutes, room temperature. From the text: The DNA sequence corresponding to murine PKD1 (see FIG. 1) was inserted into pFastBAc Htb (Invitrogen, USA) at BamH1 and EcoR1 sites using standard molecular biology techniques.
The PKD1 described above was expressed as a hexahistidine tagged protein construct using a commercially available baculoviral expression system that induces protein production in insect cell culture (Bac-to-Bac® HT Baculovirus Expression System, Invitrogen). Protein was typically expressed by inoculating 1 L of sf9 cells with a genetically modified baculovirus containing the gene for the kinase domain of PKD1. Sf9 cells were obtained from ICR Ltd.
Purification of PKD1 was achieved by standard chromatographic procedures. Capture from crude centrifuged lysed cell supernatant was achieved using metal affinity chromatography (GE Healthcare Life Sciences, HiTrap Chelating chromatography column), and fractions showing PKD1 (as assessed by gel electrophoresis and western blot) were further purified by a single polish purification step performed using a mono Q anion exchange chromatography system (GE Healthcare Life Sciences, HiTrap HP Q column). […] This protocol describes the method for screening compounds as inhibitors of Protein Kinase D activity in a 384 well microplate format fluorescence polarisation IMAP assay performed using the Biomek FX.
Kinase Enzyme: Murine PKD1 kinase domain at ˜100 μg/mL, was purified from baculovirus (as described above), obtained from aliquots stored at −70° C. PKD was prepared with a final concentration of 0.1 μg/mL by diluting 1:300 in Reaction Buffer (30 μL per 9 mL-5 mL per plate with an additional 4 mL dead volume) and vortexing prior to use. It was necessary to check this concentration regularly in case of enzyme degradation.
(also known as MAPKAP K2 substrate) was obtained from Molecular Devices (Product code R7127). It was used at 300 nM by diluting 20 μM stock 1:66 in Kinase/Reaction Buffer (135 μL per 9 mL; 75 μL per 5 mL Reaction Buffer for blank wells requiring <1 mL per place with an additional 4 mL dead volume).
A 1 mM ATP stock in Reaction Buffer was prepared from a 10 mM stock in 20 mM NaOH and stored as aliquots at −70° C. It was used at 40 μM by diluting 1 mM stock 1:25 in Reaction Buffer (240 μL per 6 mL-2 mL per plate with an additional 4 mL dead volume) and vortexing prior to use.
IMAP Reagents: IMAP Binding Reagent (product code R7207) and Binding Buffer (product code R7208) were obtained from Molecular Devices and stored at +4° C. The beads were gently re-suspended before diluting by 1:400 in buffer (Binding Buffer is supplied as a 5× stock and so was diluted with water prior to use) and then vortexing before addition to wells. 16 mL water with 4 mL Binding Buffer and 50 μL Binding Reagent were used per plate (17 mL per plate with an additional 3 mL dead volume).
13 μL Substrate in Reaction Buffer was added to ‘blank’ wells to give 200 nM reaction concentration. […] 2 μL 10% DMSO/water was added to ‘blank’ and ‘control’ wells. 5 μL ATP in Reaction Buffer was added to all wells to give 10 μM reaction concentration. The reaction mixture was then incubated at room temperature for 60 minutes. The incubation period was followed by the addition of 40 μL IMAP Binding Reagent in Binding Buffer to all wells. The reaction was then further incubated at room temperature for […].
Percentage inhibition was calculated based on activity of the test sample minus the average values in the blank wells relative to the average values measured in control wells minus the average values in the blank wells.
IC50 values were calculated from 10 point dose sigmoid ‘dose-response’ curves using Xlfit software (IDBS inc, USA). Data were fitted to a 4 parameter logistic model/sigmoidal dose response:
where: A=fit minimum (locked to 0); B=fit maximum (locked to 100); C=fit midpoint (pre-fit to 1); D=slope at linear portion of curve, hillslope (pre-fit to 0.1)
For orientation: Polarisation of emitted light reports the rotation of a fluorescent probe.
As for `CN(C)CCNC(=O)c1cccc(-c2cnc(N)c(-c3cnc4ccccc4c3)c2)c1` [Y-090, 3-(6-Amino-5-quinolin-3-yl-pyridin-3-yl)-N-(2-dimethylamino-ethyl)-benzamide], the concentration for half-maximal inhibition (IC50) is < 1 µM. As for `COc1cc(-c2cncc(-c3cccc(C(=O)N4CCNCC4)c3)n2)ccc1O` [X-010, {3-[6-(4-Hydroxy-3-methoxy-phenyl)-pyrazin-2-yl]-phenyl}-piperazin-1-yl-methanone], the figure is 1 to 10 µM; as for `CN(C)CCNC(=O)c1cccc(-c2cnc(N)c(-c3cccc(Oc4ccccc4)c3)c2)c1` [Y-049, 3-[6-Amino-5-(3-phenoxy-phenyl)-pyridin-3-yl]-N-(2-dimethylamino-ethyl)-benzamide], < 1 µM. The value for `COc1cccc(-c2cncc(-c3cccc(C(=O)NCCCN(C)C)c3)n2)c1` [X-001, N-(3-Dimethylamino-propyl)-3-[6-(3-methoxy-phenyl)-pyrazin-2-yl]-benzamide] was 1 to 10 µM; that for `COc1cc(-c2cncc(-c3cccc(C(=O)NC4CCN(C)CC4)c3)n2)ccc1O` [X-019, 3-[6-(4-Hydroxy-3-methoxy-phenyl)-pyrazin-2-yl]-N-(1-methyl-piperidin-4-yl)-benzamide] was < 1 µM; that for `COc1ccc2cc(-c3nc(-c4cccc(C(=O)NCCN(C)C)c4)cnc3N)ccc2c1` [X-025, 3-[5-Amino-6-(6-methoxy-naphthalen-2-yl)-pyrazin-2-yl]-N-(2-dimethylamino-ethyl)-benzamide] was < 1 µM. The value for `CN(C)CCNC(=O)c1cccc(-c2cnc(N)c(-c3ccc4cc(O)ccc4c3)c2)c1` [Y-082, 3-[6-Amino-5-(6-hydroxy-naphthalen-2-yl)-pyridin-3-yl]-N-(2-dimethylamino-ethyl)-benzamide] was < 1 µM. With `CN(C)CCCNC(=O)c1cccc(-c2cncc(-c3ccc(O)cc3)n2)c1` [X-004, N-(3-Dimethylamino-propyl)-3-[6-(4-hydroxy-phenyl)-pyrazin-2-yl]-benzamide], the IC50 is < 1 µM.

Turning to `COc1cc(-c2cc(-c3cccc(C(=O)NCCN(C)C)c3)cnc2N)ncn1` [Y-093, 3-[6-Amino-5-(6-methoxy-pyrimidin-4-yl)-pyridin-3-yl]-N-(2-dimethylamino-ethyl)-benzamide], the concentration for half-maximal inhibition (IC50) is < 1 µM. Turning to `CN(C)CCNC(=O)c1cccc(-c2cnc(N)c(-c3ccccc3OCc3ccccc3)c2)c1` [Y-030, 3-[6-Amino-5-(2-benzyloxy-phenyl)-pyridin-3-yl]-N-(2-dimethylamino-ethyl)-benzamide], the IC50 was in the range of 1 to 10 µM. As for `COc1cccc(-c2nc(-c3cccc(C(=O)NCCN(C)C)c3)cnc2N)c1` [X-026, 3-[5-Amino-6-(3-methoxy-phenyl)-pyrazin-2-yl]-N-(2-dimethylamino-ethyl)-benzamide], the figure is < 1 µM; as for `CN(C)CCNC(=O)c1cccc(-c2cnc(N)c(-c3cccc4ccccc34)c2)c1` [Y-019, 3-(6-Amino-5-naphthalen-1-yl-pyridin-3-yl)-N-(2-dimethylamino-ethyl)-benzamide], < 1 µM.

As for `CN(C)CCNC(=O)c1cccc(-c2cnc(N)c(-c3cccc(S(C)(=O)=O)c3)c2)c1` [Y-072, 3-[6-Amino-5-(3-methanesulfonyl-phenyl)-pyridin-3-yl]-N-(2-dimethylamino-ethyl)-benzamide], the IC50 was in the range of 1 to 10 µM. As for `CN(C)CCNC(=O)c1cccc(-c2cnc(N)c(-c3ccc(CO)cc3)c2)c1` [Y-061, 3-[6-Amino-5-(4-hydroxymethyl-phenyl)-pyridin-3-yl]-N-(2-dimethylamino-ethyl)-benzamide], the IC50 was < 1 µM. As for `CN(C)CCNC(=O)c1cccc(-c2cnc(N)c(-c3cccc(O)c3)c2)c1` [Y-077, 3-[6-Amino-5-(3-hydroxy-phenyl)-pyridin-3-yl]-N-(2-dimethylamino-ethyl)-benzamide], the figure is < 1 µM; as for `CSc1nccc(-c2cc(-c3cccc(C(=O)NCCN(C)C)c3)cnc2N)n1` [Y-086, 3-[6-Amino-5-(2-methylsulfanyl-pyrimidin-4-yl)-pyridin-3-yl]-N-(2-dimethylamino-ethyl)-benzamide], < 1 µM. As to `COc1cc(-c2nc(-c3cccc(C(=O)NCCN(C)C)c3)cnc2N)ccc1F` [X-016, 3-[5-Amino-6-(4-fluoro-3-methoxy-phenyl)-pyrazin-2-yl]-N-(2-dimethylamino-ethyl)-benzamide], the IC50 is < 1 µM. In the case of `CCN(CC)CCNC(=O)c1cccc(-c2cnc(N)c(-c3cccc(OC)c3)c2)c1` [Y-096, 3-[6-Amino-5-(3-methoxy-phenyl)-pyridin-3-yl]-N-(2-diethylamino-ethyl)-benzamide], the IC50 is < 1 µM. The value for `CN(C)CCNC(=O)c1cccc(-c2cnc(N)c(-c3cc(Cl)cc(Cl)c3)c2)c1` [Y-037, 3-[6-Amino-5-(3,5-dichloro-phenyl)-pyridin-3-yl]-N-(2-dimethylamino-ethyl)-benzamide] was < 1 µM; that for `CN(C)CCNC(=O)c1cccc(-c2cnc(N)c(-c3cccc4cnccc34)c2)c1` [Y-018, 3-(6-Amino-5-isoquinolin-5-yl-pyridin-3-yl)-N-(2-dimethylamino-ethyl)-benzamide] was 1 to 10 µM; that for `CN(C)CCNC(=O)c1cccc(-c2cnc(N)c(-c3cccc(CC#N)c3)c2)c1` [Y-080, 3-[6-Amino-5-(3-cyanomethyl-phenyl)-pyridin-3-yl]-N-(2-dimethylamino-ethyl)-benzamide] was < 1 µM. The value for `COc1ccc(-c2cc(-c3cccc(C(=O)NCCN(C)C)c3)cnc2N)cc1F` [Y-043, 3-[6-Amino-5-(3-fluoro-4-methoxy-phenyl)-pyridin-3-yl]-N-(2-dimethylamino-ethyl)-benzamide] was < 1 µM; that for `CCSc1ccc(-c2cc(-c3cccc(C(=O)NCCN(C)C)c3)cnc2N)cc1` [Y-053, 3-[6-Amino-5-(4-ethylsulfanyl-phenyl)-pyridin-3-yl]-N-(2-dimethylamino-ethyl)-benzamide] was < 1 µM; that for `COc1cc(-c2cc(-c3cccc(C(=O)NCCN(C)C)c3)cnc2N)ccc1F` [Y-056, 3-[6-Amino-5-(4-fluoro-3-methoxy-phenyl)-pyridin-3-yl]-N-(2-dimethylamino-ethyl)-benzamide] was < 1 µM. As for `COc1ccc2cc(-c3cc(-c4cccc(C(=O)NCCN(C)C)c4)cnc3N)ccc2c1` [Y-087, 3-[6-Amino-5-(6-methoxy-naphthalen-2-yl)-pyridin-3-yl]-N-(2-dimethylamino-ethyl)-benzamide], the figure is < 1 µM; as for `CN(C)CCNC(=O)c1cccc(-c2cnc(N)c(-c3cccc(OC(F)(F)F)c3)c2)c1` [Y-050, 3-[6-Amino-5-(3-trifluoromethoxy-phenyl)-pyridin-3-yl]-N-(2-dimethylamino-ethyl)-benzamide], < 1 µM. Turning to `CC(C)Oc1cccc(-c2cc(-c3cccc(C(=O)NCCN(C)C)c3)cnc2N)c1` [Y-046, 3-[6-Amino-5-(3-isopropoxy-phenyl)-pyridin-3-yl]-N-(2-dimethylamino-ethyl)-benzamide], the IC50 was 1 to 10 µM.

Source of the values: patent publication US20110098325A1, “PYRIDINE BENZAMIDES AND PYRAZINE BENZAMIDES USED AS PKD INHIBITORS” (CANCER RESEARCH TECHNOLOGY LIMITED, priority 2006, published 2011).
